Reference: patent publication US20230001026A1, “PHAR[…] UNITS AND METHODS FOR CONCOMITANT ADMINISTRATION OF RADIOTRACERS” (LikeMinds, Inc., priority 2019, published 2023)
Several values for one entry are separate records, joined by “and”; a condition that tells them apart may be missing. Equal entries are not always repeated. Where two headings read alike, the source gives them in different places.

What was measured:
[1] = sponsored clinical trials: safety and radiation dose of bolus injection; format: in vivo, human
Procedure: Such buffers include, but are not limited to, ethanol (solvent), sodium hydroxide and acetic acid (pH adjustment), sodium chloride injection (isotonic vehicle). The formulation to be administered as a bolus injection has been shown in sponsored clinical trials to be safe containing a dose of up to about 8 mCi to 10 mCi of radiolabeled DaT2020 and delivered in a total volume of about 2.5 mL to about 5 mL.
The radioactivity of the dose of radiolabeled DaT2020 or of its radiolabeled derivatives, can be determined by one with skill in the art, e.g. by a nuclear medicine imaging technician. In addition, the total radioactivity of the actual administered dose is of relevance and not the volume administered to achieve this dose. The exact radioactive dose of the tracer administered is determined by calculating the difference between the radioactivity in the syringe and delivery system before and after injection. After the dose is delivered, the syringe is filled with a volume of saline equal to the administered dose volume. The syringe content is recounted under the same conditions as used to determine the dose; separately. […]

[2] = biological target: T1, DAT in the striatum (Homo sapiens, UniProt Q01959); assay: SPECT imaging of radiotracer binding to DAT after i.v. injection; format: in vivo; set-up: from tissue; host or cells: striatum of living patients (in vivo SPECT)
Excerpt: More recently, the SN to striatum pathway of a live patient has become assessible by viewing images of the striatum obtained by various noninvasive imaging techniques. Such non-invasive methods use single photon emission computed tomography (SPECT) assessment measuring the uptake/binding of a radiolabeled imagining agent that binds to dopamine transporters (DAT) in the striatum. Currently, the only SPECT radiopharmaceutical approved for use in the United States, the European Union, and Canada is DaTSCAN® (N-ω-fluoropropyl-2β-carbomethoxy-3β-(4-iodophenyl) nortropane), which is radiolabeled with ^123I. After injection of DaTSCAN, the patient must wait 3 hr for its uptake into systemic circulation, and transition through the blood brain barrier into the parenchyma of the brain tissue until it reaches stable binding to DAT. At that point, radioactivity (counts) can be collected and quantified, and a visual image can be acquired via SPECT. The visual image is compiled for reading by experts who then determine if there is evidence of DAT density loss in the striatum. In the case of a patient with Parkinson's disease, an asymmetrical pattern of binding in the striatum is observed in the image, whereas in the non-parkinsonian tremor patient, the pattern is visible as bilateral and symmetrical (i.e., “normal) (Lewis et al. (2012) Practitioner 1748: 21-24). This information is used by treating physicians in determining diagnosis and subsequent treatment.
SPECT and PET are procedures in which the isotope bound to DaT2020 or derivatives thereof is measured once the agent has been administered and has reached stable binding in the ROI. Once entering the blood stream, it travels throughout the body (e.g., brain, liver, kidney, heart, lungs, and the peripheral vascular system) and binds to DAT in various regions of the body including the striatum. The time it takes to reach stable binding (to eliminate background noise to form a clearer image) depends on the ROI and the depth of the tissue penetrated by the agent.
In SPECT, the single emitted photon passes into the camera and strikes a scintillation crystal which, in turn, is viewed by a large number of photomultiplier tubes. The output voltages generated by the photomultiplier tubes are fed to a position circuit which produces four output signals. These signals contain information about the position and intensity of where the photon struck the crystal (scintillations). These signals (which “unblank” or “light up” the receiver, e.g., a cathode ray oscilloscope) for each photon are then fed into the memory circuitry of a computer and stored. […] Therefore, one can obtain counts and process them for quantitation at any single moment or over varying periods of time during a single scan session. In order to construct an image, a scan session must collect millions of counts over time in order to produce enough detail for a human reader to evaluate. […]
SPECT acquisition is performed on a SPECT/CT or stand-alone SPECT with at least two imaging heads fitted with collimators (parallel-beam and fan beam collimators with manufacturer specified (or measured according to NEMA standards) planar system resolution of <8 mm FWHM (in ‘air’ at 10 cm distance). Raw projection data (or counts) are acquired as described in Djang et al. (2013) Nuclear Med. Mol. Imaging 47(2):73-80), step-and-shoot mode with angle increments of 3° can be used. […]

[3] = biological target: T1, DAT in the striatum; conditions: cited from earlier work; for time after injection until binding to striatal DAT becomes stable: post-injection, before SPECT imaging
[4] = biological target: DAT (Homo sapiens, UniProt Q01959); conditions: package insert; cited from earlier work
DAT, sequence (Q01959 whole entry, species assumed): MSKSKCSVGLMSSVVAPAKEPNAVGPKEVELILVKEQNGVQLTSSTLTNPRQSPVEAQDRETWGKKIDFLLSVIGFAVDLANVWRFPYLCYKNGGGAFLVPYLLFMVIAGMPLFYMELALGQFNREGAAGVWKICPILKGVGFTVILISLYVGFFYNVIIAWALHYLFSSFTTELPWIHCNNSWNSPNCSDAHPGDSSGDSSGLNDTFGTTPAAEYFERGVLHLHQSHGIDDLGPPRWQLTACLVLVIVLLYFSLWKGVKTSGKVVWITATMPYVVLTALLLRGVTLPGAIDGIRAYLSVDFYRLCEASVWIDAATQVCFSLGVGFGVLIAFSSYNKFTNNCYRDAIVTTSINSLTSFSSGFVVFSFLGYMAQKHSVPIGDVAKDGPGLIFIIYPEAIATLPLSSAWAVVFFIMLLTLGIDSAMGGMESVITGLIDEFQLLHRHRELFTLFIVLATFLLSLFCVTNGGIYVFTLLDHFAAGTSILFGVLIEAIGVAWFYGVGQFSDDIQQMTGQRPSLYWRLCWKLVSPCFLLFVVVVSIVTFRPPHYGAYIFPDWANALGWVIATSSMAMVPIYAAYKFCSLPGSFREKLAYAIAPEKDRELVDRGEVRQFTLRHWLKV

T1 sequence (Q01959 whole entry): as the sequence (Q01959 whole entry, species assumed) above

Row | SMILES | safety of bolus injection formulation ([1]; dose of up to about 8 mCi to 10 mCi, total volume about 2.5 mL to about 5 mL) | effective dose ([1]; for 5 mCi of radiolabeled DaT2020) | time after administration at which stable binding occurs ([2]; after administration, scanning can begin) | time at which captured energy (counts) stabilizes ([2]; during scan after administration) | SPECT image availability after i.v. injection time ([2]; post i.v. injection) | time of wash-out from DAT receptors in dopaminergic neurons ([2]; post i.v. injection) | scan time over which sufficient data for an image are collected ([2]; scan starting 15 min after administration) | half-life ([3]; 123I-labeled tracer) | earliest start of scanning procedure after administration ([3]; after administration) | duration for which binding remains stable ([3]; after stable binding is reached 3 hr post-injection) | time of wash-out from DAT receptors in dopaminergic neurons ([3]; post i.v. injection, comparator, 'or more') | SPECT image availability after i.v. injection time ([3]; post i.v. injection, comparator) | time after injection until binding to striatal DAT becomes stable [3] | time after injection until binding to striatal DAT becomes stable ([3]; listed as [^123I]-FP-CIT) | fraction of tracer available for DAT transporter binding in the brain tissue ([3]; rest bound to transporters other than DAT, package insert) | DAT sites bound for every one SERT site [4]
1 | COC(=O)C1C(c2ccc(F)cc2)CC2CCC1N2C/C=C/[123I] (stereo not drawn) [DaT2020, [^123I]-E-2β-carbomethoxy-3β-(4-fluorophenyl)-N-(3-iodo-E-allyl) nortropane] | safe | approximately 4.3 mSv | 15 min | 14 to 18 min | 45 to 60 min | ≤ 60 min | 30 min | – | – | – | – | – | – | – | – | –
2 | COC(=O)[C@H]1[C@@H](c2ccc(I)cc2)C[C@@H]2CC[C@H]1N2CCCF [DaTSCAN, N-ω-fluoropropyl-2β-carbomethoxy-3β-(4-iodophenyl) nortropane] | – | – | – | – | – | – | – | 13.2 h | at least 180 min | 3 h | 180 to 240 min | 180 to 240 min | 3 h and 3 to 6 h | 3 h | about 7% | two to three
